According to patent US20130189262A1, “IL-27 Antagonists for Treating Inflammatory Diseases” (Five Prime Therapeutics, Inc., priority 2011, published 2013):

Key:
[1] = system: primary human bronchial smooth muscle cells; assay: CXCL10 expression with combinations of TNF-α, IL-27 and fluticasone (bDNA assay); assay type: cell-based; conditions: for CXCL10 expression, factor alone: single factor alone (5 ng/ml TNF-α; 1 μg/ml linked IL-27; IFN-γ), FIG. 4
Protocol: Primary human bronchial smooth muscle cells were cultured in the presence of 5 ng/ml TNF-αalone, 5 ng/ml TNF-α and 25 nM fluticasone; 1 μg/ml linked IL-27; 5 ng/ml TNF-α and 30 ng/ml IL-27; or 5 ng/ml TNF-α, 25 nM fluticasone, and 30 ng/ml IL-27. CXCL10 expression was determined by bDNA assay.

[2] = system: primary human bronchial smooth muscle cells; assay: CXCL10 expression with TNF-α, fluticasone and IL-12 family cytokine supernatants (bDNA assay); assay type: cell-based; conditions: 5 ng/ml TNF-α, 25 nM fluticasone, 293T supernatant; FIG. 5
Protocol: Primary human bronchial smooth muscle cells were cultured in the presence of 5 ng/ml TNF-α, 25 nM fluticasone, and a supernatant from 293T cells expressing IL-27 subunit EBI3 alone, IL-27 subunit p28 alone, IL-12 (comprised of p35 and p40), IL-35 (comprised of p35 and EBI3), IL-23 (comprised of p19 and p40), or IL-27 (comprised of p28 and EBI3). CXCL10 expression was determined by bDNA assay.

[3] = system: primary human bronchial smooth muscle cells; assay: Dose dependence of IL-27-induced steroid insensitivity (CXCL10/CD38 bDNA assay); assay type: cell-based; conditions: 5 ng/ml TNF-α, 25 nM fluticasone
Protocol: Primary human bronchial smooth muscle cells were cultured in the presence of 5 ng/ml TNF-α, 25 nM fluticasone, and increasing concentrations of linked IL-27 (Cat. No. 2526-IL; R&D Systems, Minneapolis, Minn.). CXCL10 and CD38 expression levels were determined by bDNA assay.

[4] = system: primary human bronchial smooth muscle cells; assay: Screen for factors inducing steroid resistance: CXCL10 and CD38 expression (bDNA) in bronchial smooth muscle cells with TNF-α and fluticasone; assay type: cell-based; conditions: 5 ng/ml TNF-α, 25 nM fluticasone
Protocol: In order to identify factors that induce a steroid-resistant state, an assay was set up as follows. Primary human bronchial smooth muscle cells were cultured in the presence of 5 ng/ml TNF-α and 25 nM fluticasone and a test substance. Steroid sensitivity was determined by detecting expression levels of CXCL10 (IP-10) and CD38 using a bDNA assay (QuantiGene® Plex 2.0; Panomics, Santa Clara, Calif.). Expression of each of those genes is suppressed by steroids, such as fluticasone. If a factor induces a steroid-insensitive state, expression of those genes should increase. Interferon family proteins were included as test substances as positive controls.
Using this assay, a library of over 4000 secreted and extracellular domain protein test substances were screened to identify test substances that induce a steroid-resistant state. The test substances were individually expressed in 293T cells and the cell supernatants used to test each substance in the assay.

[5] = system: primary human bronchial epithelial cells; assay: CXCL9 (MIG) / CXCL10 induction in air-liquid interface bronchial epithelial cells (ELISA); assay type: cell-based; conditions: normal donor; with and without 25 nM fluticasone; FIG. 9
[6] = system: primary bronchial smooth muscle cells (BSMCs); assay: WSX-1 expression in bronchial smooth muscle cells treated with factors (quantitative RT-PCR); assay type: cell-based, human; conditions: 5 ng/ml TNF-α; FIG. 7
Protocol: The effect of various factors on WSX-1 expression was then determined in primary bronchial smooth muscle cells (BSMCs). The BSMCs were treated with 5 ng/ml TNF-α, 10 ng/ml IFN-γ, 5 ng/ml TNF-α and 10 ng/ml IFN-γ, or 5 ng/ml TNF-α and 10 ng/ml IFN-γ and 25 nM fluticasone. WSX-1 expression was determined by quantitative RT-PCR and normalized to RPL19.

human IL-27 = molecular target: T1, human IL-27 (Homo sapiens, UniProt Q14213+Q8NEV9); assay: Inhibition of IL-27-induced CXCL10 expression in bronchial smooth muscle cells (ELISA); assay type: cell-based; conditions: 0.2 to 20 μg/mL preincubated with 5 ng/mL linked or native human IL-27 and 5 ng/mL TNF-α; FIG. 11
T1 construct: made in house
T1 sequence (Q8NEV9 29-243): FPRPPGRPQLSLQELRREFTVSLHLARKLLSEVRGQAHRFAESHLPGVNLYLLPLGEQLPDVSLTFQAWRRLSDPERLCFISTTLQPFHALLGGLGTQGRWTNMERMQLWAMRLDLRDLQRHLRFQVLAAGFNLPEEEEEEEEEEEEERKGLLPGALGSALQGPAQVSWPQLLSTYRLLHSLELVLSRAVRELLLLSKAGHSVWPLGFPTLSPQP
T1 sequence (Q14213 21-229): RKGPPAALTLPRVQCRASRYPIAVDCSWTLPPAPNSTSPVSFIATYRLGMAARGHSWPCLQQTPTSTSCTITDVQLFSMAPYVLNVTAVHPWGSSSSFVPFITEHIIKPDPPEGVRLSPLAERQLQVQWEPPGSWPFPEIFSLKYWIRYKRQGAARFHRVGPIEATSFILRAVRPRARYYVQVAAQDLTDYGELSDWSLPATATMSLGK
Protocol: Various concentrations of an IL-27 antagonist, WSX-1 ECD (0.2 to 20 μg/mL), were preincubated with 5 ng/mL of human IL-27 in the presence of 5 ng/mL of human TNF-α. Both linked and native human IL-27 were tested. Human linked IL-27 was obtained from R&D Systems and is produced with a linker between the p28 subunit and the EBI3 subunit. Native IL-27 was produced and purified in house by transfecting mammalian cells with separate vectors expressing each subunit and purifying the resulting p28/EBI3 (IL-27) heterodimer from the cell culture supernatant. Following the preincubation of WSX-1 ECD with IL-27 and TNF-α, the stimulus was added to primary human bronchial smooth muscle cells in culture. CXCL10 expression was determined by ELISA.
Various concentrations of a polyclonal antibody against human IL-27 (0.4 to 50 μg/mL; R&D Systems) were preincubated with 10 ng/mL of native human IL-27 in the presence of 5 ng/mL of human TNF-α. Following the preincubation of polyclonal antibody with IL-27 and TNF-α, the stimulus was added to primary human bronchial smooth muscle cells in culture. CXCL10 expression was determined by ELISA.

IFN-γ: interferon family protein, positive control in the screen
CXCL10 expression, factor alone [1]: did not induce CXCL10 expression

C[C@@H]1C[C@H]2[C@@H]3C[C@H](F)C4=CC(=O)C=C[C@]4(C)[C@@]3(F)[C@@H](O)C[C@]2(C)[C@@]1(O)C(=O)SCF [fluticasone, reference compound]
effect on CXCL10 expression induced by IL-27 and TNF-α ([1]; 5 ng/ml TNF-α, 25 nM fluticasone, 30 ng/ml IL-27): no effect

IL-27: heterodimeric cytokine comprising the subunits p28 and EBI3; linked IL-27 from R&D Systems (Cat. No. 2526-IL)
synergistic increase of CXCL10 expression in the presence of TNF-α and fluticasone [2]: synergistically increased CXCL10 expression | steroid insensitivity (CXCL10 expression in the presence of fluticasone) ([3]; increasing concentrations of linked IL-27): induced steroid-insensitivity in a dose-dependent manner | expression of CD38 ([3]; increasing concentrations of linked IL-27, data not shown): increased with increasing concentration | EC50 ([3]; linked IL-27, FIG. 3, read-out: EC50 for CXCL10 expression in the presence of fluticasone): 0.372 nM | fold-change in CXCL10 expression (screen) ([4]; 293T supernatant of test substance, FIG. 1): positive data points | effect on CD38 expression (two retests) ([4]; FIG. 2): positive data points | steroid sensitivity of IL-27 induction of CXCL10 expression [5]: steroid-insensitive at all concentrations of IL-27 | CXCL10 expression, in combination with TNF-α ([1]; 5 ng/ml TNF-α and 30 ng/ml IL-27): very high CXCL10 expression | CXCL10 expression, factor alone [1]: did not affect expression of CXCL10

TNF-α
WSX-1 expression normalized to RPL19 [6]: up-regulated | CXCL10 expression, factor alone [1]: increased expression of CXCL10

B1: WSX-1 ECD: IL-27 antagonist; WSX-1 polypeptide that lacks the intracellular and transmembrane domains (protein, UniProt Q6UWB1 33-516, looked up)
extracellular domain: QGSAGPLQCYGVGPLGDLNCSWEPLGDLGAPSELHLQSQKYRSNKTQTVAVAAGRSWVAIPREQLTMSDKLLVWGTKAGQPLWPPVFVNLETQMKPNAPRLGPDVDFSEDDPLEATVHWAPPTWPSHKVLICQFHYRRCQEAAWTLLEPELKTIPLTPVEIQDLELATGYKVYGRCRMEKEEDLWGEWSPILSFQTPPSAPKDVWVSGNLCGTPGGEEPLLLWKAPGPCVQVSYKVWFWVGGRELSPEGITCCCSLIPSGAEWARVSAVNATSWEPLTNLSLVCLDSASAPRSVAVSSIAGSTELLVTWQPGPGEPLEHVVDWARDGDPLEKLNWVRLPPGNLSALLPGNFTVGVPYRITVTAVSASGLASASSVWGFREELAPLVGPTLWRLQDAPPGTPAIAWGEVPRHQLRGHLTHYTLCAQSGTSPSVCMNVSGNTQSVTLPDLPWGPCELWVTASTIAGQGPPGPILRLHLPDNTLRWK
modifications: extracellular domain
notes: IL-27 antagonist; WSX-1 polypeptide that lacks the intracellular and transmembrane domains
inhibition of IL-27-induced expression of CXCL10 (human IL-27): inhibited IL-27-induced expression of CXCL10
